Results on four molecules are retold here after US10550388B2, “Targeting pleiotrophin signaling to limit high-grade glioma invasion” (The Board of Trustees of the Leland Stanford Junior …, priority 2017, dated 2020).

Data set [1] concerns pleiotrophin. As to the kind of experiment: Knockdown of pleiotrophin expression in the mouse SVZ. The note with it: stereotactic injection into the mouse SVZ; vs scrambled shRNA control. Type of data set: in vivo. The protocol:
(§1) Mice used for shRNA lentivirus studies received shRNA-expressing lentivirus in the SVZ at P27-29 and DIPG cells in the left pons at P34-36. For lentiviral injections, 2 μL of shRNA-expressing lentivirus were stereotactically injected into the SVZ. Stereotactic coordinates used were: 1.3 mm lateral to midline, 0.1 mm posterior to bregma suture, and 2 mm deep. Virus was injected and the needle was withdrawn according to the same procedure as described above.
Mice were intraperitoneally injected with Avertin (tribromoethanol) for anesthesia, and then transcardially perfused with 20 mL of ice-cold PBS. Brains were dissected out and fixed in 4% paraformaldehyde in PBS overnight at 4° C., and were then transferred to 30% sucrose in PBS for cryoprotection. Brains were embedded in Tissue-Tek O.C.T. (Sakura, Torrance, Calif.). Brains from mice older than P10 were sliced into 40 μm coronal or sagittal sections using a sliding microtome (Microm HM450; Thermo Scientific, Waltham, Mass.). Brains from mice age P0 to P10 were sliced into 25 μm coronal sections using a cryostat (Leica Biosystems CM3050 S; 1058 Wetzlar, Germany). For immunohistochemistry, a 1 in 6 series of 25 μm or 40 μm sections was incubated in blocking solution (3% normal donkey serum, 0.3% Triton X-100 in TBS) at room temperature for 1 hour. […]

The subject of data set [2] is SU-DIPG-XIII FL cells. The experiment in a line: shRNA-expressing lentivirus injected into the SVZ of orthotopically xenografted mice. Type of data set: in vivo, NSG mice. Particulars: vs scrambled shRNA control; for DIPG cells invading the SVZ: 16 weeks following pontine xenograft. The protocol:
NSG mice at age P34-36 were orthotopically xenografted with SU-DIPG-XIII frontal lobe CMV-GFP-luciferase cells, in a similar procedure to as previously described (Grasso et al., supra; Venkatesh et al. (2015) Cell 161, 803-816). Briefly, a single-cell suspension of SU-DIPG-XIII frontal lobe CMV-GFP-luciferase cells at passage 16-19 was prepared in sterile HBSS immediately before beginning the xenograft procedure. 600,000 cells in 3 μL were stereotactically injected into the pons of the left hemisphere of NSG mice, through a 31-gauge burr hole. Stereotactic coordinates used were: 1 mm lateral to midline, 0.8 mm posterior to lambda suture, and 5 mm deep. Cells were injected at a rate of 0.4 μL/min using a digital pump and a 31-gauge Hamilton syringe. After infusion of cells, the syringe needle was kept in place for 2 minutes, and then withdrawn manually at a rate of 0.875 mm/min to minimize the backflow of cells.
as §1
Mice were imaged using an IVIS Spectrum to ensure tumor engraftment and monitor tumor size. Mice were anesthetized under 1% isoflurane, intraperitoneally injected with luciferin (15 mg/kg), and imaged for bioluminescence every minute until the peak total flux was reached.
For quantification of DIPG invasion of the SVZ after knock down of targets in the SVZ, 5 NSG mice per group were injected with shRNA-expressing lentivirus in bilateral SVZs and orthotopically xenografted with SU-DIPG-XIII FL in the left pons. Mice were perfused for analysis 16 weeks after xenograft. A 1:6 series of coronal slices from each mouse brain was immunostained and imaged, and the number of GFP^+ HNA^+ glioma cells within 200 μm of the lateral ventricles in all slices containing lateral ventricles was manually counted.
For quantification of neural stem/precursor cells in the SVZ after knock down of PTN in the SVZ, a 1:6 series of coronal slices from each mouse was immunostained and imaged, and the number of Sox2^+ neural stem/precursor cells in a 20×Z-stack was manually counted. The density of Sox2^+ cells was calculated as cells/mm^3.

Data set [3] has as its system SU-DIPG-XIII FL cells. As to the kind of experiment: Matrigel invasion assay (Boyden chamber) of DIPG cells. It is filed as cell-based, human. Particulars: 72 hours; for DIPG invasion toward SVZ hNPC CM: inhibitor added to the cells in the top insert, dose curve, vehicle DMSO control. Here is the method:
To test for chemoattraction and invasion toward neural precursor cell conditioned media or another candidate chemoattractant, a single-cell suspension of 100,000 DIPG cells in Tumor Stem Media (TSM) base (with B27 (−A) and heparin, without growth factors) was seeded in the top inserts of BioCoat growth factor reduced Matrigel invasion chambers (Corning, Bedford, Mass.), after rehydration of the inserts. Chemoattractant media was added to the bottom of the chamber. All conditions were plated in triplicate. After 72 hours, media was aspirated, and the non-invading cells on top of the layer of Matrigel were scrubbed off. The invading cells were fixed in 4% paraformaldehyde and then stained with 0.1% crystal violet in 10% methanol in distilled water. The number of invading cells was quantified by the intensity of the crystal violet dye on the invading side of the Matrigel. The dye was collected in 10% acetic acid, and absorbance was measured at 595 nm.
To test the ROCK or HSP90 inhibitors in the Matrigel invasion assay, the inhibitors were added to the suspension of glioma cells in TSM base (with B27 (−A) and heparin) seeded in the top inserts at the appropriate concentrations, and neural precursor cell conditioned media was plated in the bottom chambers. The rest of the procedure was performed as described above.

In data set [4] the test system is SU-DIPG-XIII FL cells. The experiment in a line: CellTiter-Glo cell viability assay. It is filed as cell-based, human. Particulars: increasing doses of inhibitor; 72 hours. Here is the method: To assess cell viability, 5,000 DIPG cells per well were seeded in base media or full growth media in a 96-well plate. Inhibitors were added at the appropriate concentrations. After 72 hours, CellTiter-Glo reagent 2.0 was added at a 1:1 ratio, and cells were lysed. Luminescence was measured after stabilization of signal for 10 minutes at room temperature.

The conditions of data set [5]: rodent models (Egorin et al. 2001); cited from earlier work.

“sh-Ptn: lentivirus-expressed shRNA against mouse PTN, Sigma TRCNO000071676, SEQ ID NO: 8 (CCGGGCACAATGCTGACTGTCAGAACTCGAGTTCTGACAGTCAGCATTGTGCTTTTTG)”: in data set [1], the “knockdown of pleiotrophin expression” value is reported as “effective knockdown of pleiotrophin expression”. Also, the “DIPG cells invading the SVZ” value in data set [2] is reported as “fewer orthotopically xenografted GFP^+ HNA^+ SU-DIPG-XIII FL cells invaded the SVZ”; in data set [2] (listed as shRNA targeting Ptn), “fewer DIPG cells invaded the SVZ”. The figures for the “density of Sox2+ neural stem/precursor cells in the SVZ” value in data set [2] and in data set [2] (listed as Ptn shRNA) were “equivalent” and “equivalent numbers of Sox2^+ NPCs”, respectively. Besides, the “tumor engraftment (bioluminescent flux)” value in data set [2] is given as “equivalent”.

Regarding `CC1=C(C(=O)Nc2cc3cn[nH]c3cc2F)C(c2ccc(C(F)(F)F)cc2)CC(=O)N1` (stereo not drawn) [GSK 429286, reference compound], in data set [3], the “DIPG invasion toward SVZ hNPC CM” value is given as “decreased DIPG invasion toward SVZ hNPC CM in a dose-dependent manner”. Moreover, the “cell viability of DIPG cells” value in data set [4] is given as “do not affect cell viability at sub-μM concentrations”.

`C=CCNC1=C2C[C@@H](C)C[C@H](OC)[C@H](O)[C@@H](C)/C=C(\C)[C@H](OC(N)=O)[C@@H](OC)/C=C\C=C(/C)C(=O)NC(=CC1=O)C2=O` [17-AAG, tanespimycin, reference compound]: in data set [5], the Brain penetration result is listed as “less than 1 μM”. In addition, the “concentrations at which invasion toward SVZ hNPC CM is decreased” value in data set [3] (in vitro, inhibitor in the top insert) is listed as “above 1 μM”.

Take `CCn1c(-c2nonc2N)nc2cnc(Oc3cccc(NC(=O)c4ccc(OCCN5CCOCC5)cc4)c3)cc21` [GSK 269962A, reference compound]: the “DIPG invasion toward SVZ hNPC CM” value in data set [3] is recorded as “decreased DIPG invasion toward SVZ hNPC CM in a dose-dependent manner”. Further, the “cell viability of DIPG cells” value in data set [4] is on record as “do not affect cell viability at sub-μM concentrations”.
